Reference: patent publication US8071768B2, “Alkylquinoline and alkylquinazoline kinase modulators” (Janssen Pharmaceutica, N.V., priority 2005, dated 2011)

Experiments:
[1] = Tolerability in the MV4-11 xenograft study (body weight, overt clinical signs); format: in vivo, nude mice; conditions: 11-day treatment, doses up to 200 mg/kg/day
Procedure: (§1) Female athymic nude mice weighing no less than 20-21 grams were inoculated subcutaneously in the left inguinal region of the thigh with 5×10^6 tumor cells in a delivery volume of 0.2 mL. For regression studies, the tumors were allowed to grow to a pre-determined size prior to initiation of dosing.

FLT3 = FLT3 phosphorylation in MV4-11 tumors from treated mice (immunoblot); format: in vivo, nude mice; conditions: single dose 100 mg/kg po, tumors harvested 2 hours later
Procedure: To establish further that compounds of the present invention reached the expected target in tumor tissue, the level of FLT3 phosphorylation in tumor tissue obtained from vehicle- and compound-treated mice was measured. Results for Compound 73 and Compound 74 are shown in FIG. 3 and FIG. 4, respectively. For this pharmacodynamic study, a sub-set of 10 mice from the vehicle-treated control group were randomized into two groups of 5 mice each and then treated with another dose of vehicle or compound (100 mg/kg, po). Tumors were harvested 2 hours later and snap frozen for assessment of FLT3 phosphorylation by immunobloting.
Harvested tumors were processed for immunoblot analysis of FLT3 phosphorylation in the following manner: 100 mg of tumor tissue was dounce homogenized in lysis buffer (50 mM Hepes, 150 mM NaCl, 10% Glycerol, 1% Triton-X-100, 10 mM NaF, 1 mM EDTA, 1.5 mM MgCl2, 10 mM NaPyrophosphate) supplemented with phosphatase (Sigma Cat#P2850) and protease inhibitors (Sigma Cat #P8340). Insoluble debris was removed by centrifugation at 1000×g for 5 minutes at 4° C. Cleared lysates ([…] of total potein at 10 mg/ml in lysis buffer) were incubated with 10 μg of agarose conjugated anti-FLT3 antibody, clone C-20 (Santa Cruz cat # sc-479ac), for 2 hours at 4° C. with gentle agitation. […]

[2] = target: T1, isolated kinase domain of the human c-kit receptor (Homo sapiens, UniProt P10721); assay: c-Kit Fluorescence Polarization Kinase Assay; format: biochemical; conditions: uncertainty ±10%; read-out: ckit IC50
T1 construct: isolated kinase domain of the human c-kit receptor; purchased ProQinase lot SP005
Procedure: c-Kit Fluorescence Polarization Kinase Assay
The compounds of the present invention are also specific inhibitors of c-Kit. Selection of preferred compounds of Formula I for use as c-Kit inhibitors was performed in the following manner using an in vitro kinase assay to measure inhibition of the isolated kinase domain of the human c-kit receptor in a fluorescence polarization (FP) protocol. The c-kit assay utilized the fluorescein-labeled phosphopeptide and the anti-phosphotyrosine antibody included in the Panvera Phospho-Tyrosine Kinase Kit (Green) supplied by Invitrogen. When c-kit phosphorylated the poly Glu4Tyr, the fluorescein-labeled phosphopeptide was displaced from the anti-phosphotyrosine antibody by the phosphorylated poly Glu4Tyr, thus decreasing the FP value. The c-kit kinase reaction was incubated at room temperature for 45 minutes under the following conditions: 1 nM c-kit (ProQinase, lot SP005), 100 ug/mL poly Glu4Tyr, 50 uM ATP, 5 mM MgCl2, 1 mM DTT, 0.01% Tween-20, 1% DMSO or compound in […], pH 7.5. The kinase reaction was stopped with the addition of EDTA. The fluorescein-labeled phosphopeptide and the anti-phosphotyrosine antibody were added and incubated for 30 minutes at room temperature and fluorescence polarization was read. Data points were an average of triplicate samples. Inhibition and IC50 data analysis were done with GraphPad Prism using a non-linear regression fit with a multiparamater, sigmoidal dose-response (variable slope) equation.

MV4-11 tumor xenografts = assay: nude mouse MV4-11 human tumor xenograft regression model; format: in vivo, nude mice; conditions: for decrease of mean tumor volume compared to vehicle-treated group: Day 11; for reduction of final tumor weight compared to vehicle-treated group: eleven days oral dosing
Procedure: Female athymic nude mice (CD-1, nu/nu, 9-10 weeks old) were obtained from Charles River Laboratories (Wilmington, Mass.) and were maintained according to NIH standards. All mice were group housed (5 mice/cage) under clean-room conditions in sterile micro-isolator cages on a 12-hour light/dark cycle in a room maintained at 21-22° C. and 40-50% humidity. Mice were fed irradiated standard rodent diet and water ad libitum. All animals were housed in a Laboratory Animal Medicine facility that is fully accredited by the American Association for Assessment and Accreditation of Laboratory Animal Care (AAALAC). All procedures involving animals were conducted in compliance with the NIH Guide for the Care and Use of Laboratory Animals and all protocols were approved by an Internal Animal Care and Use Committee (IACUC).
The human leukemic MV4-11 cell line was obtained from the American Type Culture Collection (ATCC Number: CRL-9591) and propagated in RPMI medium containing 10% FBS (fetal bovine serum) and 5 ng/mL GM-CSF (R&D Systems). MV4-11 cells are derived from a patient with childhood acute myelomonocytic leukemia with an 11q23 translocation resulting in a MLL gene rearrangement and containing an FLT3-ITD mutation (AML subtype M4)(1,2). MV4-11 cells express constitutively active phosphorylated FLT3 receptor as a result of a naturally occurring FLT3/ITD mutation. Strong anti-tumor activity against MV4-11 tumor growth in the nude mouse tumor xenograft model is anticipated to be a desirable quality of the invention.
as §1
(See FIG. 2). […] Percent Inhibition was calculated versus the mean tumor weight in the vehicle-treated control group.

TrkB = target: T2, TrkB (Homo sapiens, UniProt Q16620); assay: Trk B Fluorescence Polarization Kinase Assay; format: biochemical; conditions: uncertainty ±10%
T2 construct: purchased Upstate 14-507M
How it was run: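 The TrkB kinase reaction (50 nM enzyme, 20 ug/mL poly Glu4Tyr, 150 uM ATP, 5 mM MgCl2, 1% DMSO) ran 30 minutes at room temperature and was stopped with EDTA. Phosphorylation was detected by fluorescence-polarization displacement of a fluorescein phosphopeptide from an anti-phosphotyrosine antibody. IC50 came from a variable-slope sigmoidal fit of triplicates.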

[3] = target: T3, FLT ligand-induced wild-type FLT3 phosphorylation (Homo sapiens, UniProt P36888); assay: Cell-Based FLT3 Receptor Elisa (Baf3 FLT3 cells); conditions: uncertainty ±20%
T3 construct: host or cells: Baf3 (murine B cell lymphoma line)
T3 sequence (P36888 27-993): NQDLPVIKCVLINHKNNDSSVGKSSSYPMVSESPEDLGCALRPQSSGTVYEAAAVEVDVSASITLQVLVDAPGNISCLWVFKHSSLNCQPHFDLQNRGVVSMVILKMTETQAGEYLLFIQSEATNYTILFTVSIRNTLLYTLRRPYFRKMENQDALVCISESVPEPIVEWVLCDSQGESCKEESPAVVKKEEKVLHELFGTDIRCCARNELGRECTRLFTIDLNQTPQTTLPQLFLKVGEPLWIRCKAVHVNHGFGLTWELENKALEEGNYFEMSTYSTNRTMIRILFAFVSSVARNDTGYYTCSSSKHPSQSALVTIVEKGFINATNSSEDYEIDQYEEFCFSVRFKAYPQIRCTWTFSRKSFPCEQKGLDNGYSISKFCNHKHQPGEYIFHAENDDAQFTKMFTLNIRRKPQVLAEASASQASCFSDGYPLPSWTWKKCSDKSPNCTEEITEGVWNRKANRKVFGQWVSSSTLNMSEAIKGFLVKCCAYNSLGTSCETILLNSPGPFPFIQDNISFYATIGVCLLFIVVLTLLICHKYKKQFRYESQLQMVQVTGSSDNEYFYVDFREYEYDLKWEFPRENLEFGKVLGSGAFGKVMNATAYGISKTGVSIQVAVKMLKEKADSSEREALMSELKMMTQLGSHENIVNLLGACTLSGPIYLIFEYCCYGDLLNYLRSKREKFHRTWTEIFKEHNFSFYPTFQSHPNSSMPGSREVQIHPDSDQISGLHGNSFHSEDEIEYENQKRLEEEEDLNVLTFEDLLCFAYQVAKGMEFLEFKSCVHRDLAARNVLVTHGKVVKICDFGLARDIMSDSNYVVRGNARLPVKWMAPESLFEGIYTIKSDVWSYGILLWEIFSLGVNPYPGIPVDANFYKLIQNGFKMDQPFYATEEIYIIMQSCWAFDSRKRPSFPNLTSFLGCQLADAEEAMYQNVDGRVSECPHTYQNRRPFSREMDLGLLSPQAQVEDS
Procedure: Cell-Based FLT3 Receptor Elisa
Specific cellular inhibition of FLT ligand-induced wild-type FLT3 phosphorylation was measured in the following manner: Baf3 FLT3 cells overexpressing the FLT3 receptor were obtained from Dr. Michael Heinrich (Oregon Health and Sciences University). The Baf3 FLT3 cell lines were created by stable transfection of parental Baf3 cells (a murine B cell lymphoma line dependent on the cytokine IL-3 for growth) with wild-type FLT3. Cells were selected for their ability to grow in the absence of IL-3 and in the presence of FLT3 ligand.
Baf3 cells were maintained in RPMI 1640 with 10% FBS, penn/strep and 10 ng/ml FLT ligand at 37° C., 5% CO2. To measure direct inhibition of the wild-type FLT3 receptor activity and phosphorylation a sandwich ELISA method was developed similar to those developed for other RTKs (3,4). 200 μL of Baf3FLT3 cells (1×10^6/mL) were plated in 96 well dishes in RPMI 1640 with 0.5% serum and 0.01 ng/mL IL-3 for 16 hours prior to 1 hour compound or DMSO vehicle incubation. Cells were treated with 100 ng/mL Flt ligand (R&D Systems Cat# 308-FK) for 10 min. at 37° C. Cells were pelleted, washed and lysed in 100 ul lysis buffer (50 mM Hepes, 150 mM NaCl, 10% Glycerol, 1% Triton-X-100, 10 mM NaF, 1 mM EDTA, 1.5 mM MgCl2, 10 mM NaPyrophosphate) supplemented with phosphatase (Sigma Cat# P2850) and protease inhibitors (Sigma Cat #P8340). […]

T2 sequence (Q16620 32-822): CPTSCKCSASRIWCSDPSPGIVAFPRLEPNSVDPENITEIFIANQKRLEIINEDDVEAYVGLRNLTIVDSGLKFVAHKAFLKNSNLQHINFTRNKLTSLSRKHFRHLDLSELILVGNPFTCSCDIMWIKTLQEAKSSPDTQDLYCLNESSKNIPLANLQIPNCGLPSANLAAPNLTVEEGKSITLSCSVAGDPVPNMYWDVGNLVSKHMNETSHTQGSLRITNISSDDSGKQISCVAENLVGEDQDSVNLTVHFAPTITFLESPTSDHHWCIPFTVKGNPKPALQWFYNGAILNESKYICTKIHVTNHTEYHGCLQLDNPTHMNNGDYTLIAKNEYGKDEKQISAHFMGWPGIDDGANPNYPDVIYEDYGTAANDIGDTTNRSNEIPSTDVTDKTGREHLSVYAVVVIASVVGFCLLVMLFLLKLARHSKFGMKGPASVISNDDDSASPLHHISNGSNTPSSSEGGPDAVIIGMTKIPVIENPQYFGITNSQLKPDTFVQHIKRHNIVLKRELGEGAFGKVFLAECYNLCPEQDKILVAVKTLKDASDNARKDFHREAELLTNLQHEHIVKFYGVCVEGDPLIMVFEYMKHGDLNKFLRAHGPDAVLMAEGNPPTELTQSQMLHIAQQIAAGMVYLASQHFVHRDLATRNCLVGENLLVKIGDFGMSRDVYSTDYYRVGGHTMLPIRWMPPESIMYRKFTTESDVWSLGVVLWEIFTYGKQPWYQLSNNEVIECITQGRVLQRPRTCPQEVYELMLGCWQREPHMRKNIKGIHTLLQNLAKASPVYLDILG
T1 sequence (P10721 589-937 limits assumed): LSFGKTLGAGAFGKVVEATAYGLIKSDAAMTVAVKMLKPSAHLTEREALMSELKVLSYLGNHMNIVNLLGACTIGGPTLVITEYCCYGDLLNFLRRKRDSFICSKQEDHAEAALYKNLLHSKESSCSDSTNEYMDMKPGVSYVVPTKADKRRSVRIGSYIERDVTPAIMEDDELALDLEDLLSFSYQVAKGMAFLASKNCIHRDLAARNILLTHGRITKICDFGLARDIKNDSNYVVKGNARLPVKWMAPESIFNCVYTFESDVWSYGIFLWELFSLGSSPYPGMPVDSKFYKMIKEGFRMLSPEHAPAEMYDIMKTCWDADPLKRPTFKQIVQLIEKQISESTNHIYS

IC50 [3] | SMILES | adverse effects on body weight [1] | overt toxicity [1] | level of FLT3 phosphorylation in MV4-11 tumors compared to vehicle-treated mice (FLT3) | IC50 [2] | final tumors in some mice (MV4-11 tumor xenografts; high dose) | IC50 (TrkB) | decrease of mean tumor volume compared to vehicle-treated group (MV4-11 tumor xenografts; 10 mg/kg b.i.d. oral) | reduction of final tumor weight compared to vehicle-treated group (MV4-11 tumor xenografts; 10 mg/kg) | decrease of mean tumor volume compared to vehicle-treated group (MV4-11 tumor xenografts; 30 mg/kg b.i.d. oral) | reduction of final tumor weight compared to vehicle-treated group (MV4-11 tumor xenografts; 30 mg/kg) | tumor regression: decrease versus starting mean tumor volume on Day 1 (MV4-11 tumor xenografts; 100 mg/kg b.i.d. oral) | decrease of mean tumor volume compared to vehicle-treated group (MV4-11 tumor xenografts; 100 mg/kg b.i.d. oral) | reduction of final tumor weight compared to vehicle-treated group (MV4-11 tumor xenografts; 100 mg/kg)
 | CN1CCN(CCCOc2ccc3c(C4CCN(C(=O)Nc5ccc(N6CCOCC6)cc5)CC4)ncnc3c2)CC1 [Compound 73, 4-{7-[3-(4-Methyl-piperazin-1-yl)-propoxy]-quinazolin-4-yl}-piperidine-1-carboxylic acid (4-morpholin-4-yl-phenyl)-amide] | no significant adverse effects on body weight | No overt toxicity | biologically significant reduction | 0.04 µM | regressed to non-palpable, non-detectable tumors | > 20 µM |  |  |  |  |  |  | 
 | O=C1CCCN1CCOc1ccc2c(C3CCN(C(=O)Nc4ccc(N5CCCC5)cc4)CC3)ncnc2c1 [Compound 74, 4-{7-[2-(2-Oxo-pyrrolidin-1-yl)-ethoxy]-quinazolin-4-yl}-piperidine-1-carboxylic acid (4-pyrrolidin-1-yl-phenyl)-amide] | no significant adverse effects on body weight | No overt toxicity | biologically significant reduction | 0.013 µM |  | 3.3 µM | 22% | 12% | 54% | 43% | 79% | 96% | 91%
> 3 µM | COc1cc2ncnc(C3CCN(C(=O)Nc4ccc(N5CCN(C)CC5)cc4)CC3)c2cc1OC [Compound 20, 4-(6,7-Dimethoxy-quinazolin-4-yl)-piperidine-1-carboxylic acid [4-(4-methyl-piperazin-1-yl-phenyl)]-amide] |  |  |  |  |  | 39.9 µM |  |  |  |  |  |  | 
1 µM | COc1cc2ncnc(C3CCN(C(=O)Nc4ccc(C(C)O)cc4)CC3)c2cc1OC (stereo not shown) [Compound 55, 4-(6,7-Dimethoxy-quinazolin-4-yl)-piperidine-1-carboxylic acid [4-(1-hydroxy-ethyl)-phenyl]-amide] |  |  |  |  |  | 39.1 µM |  |  |  |  |  |  | 
